Assay results published in ChEMBL document CHEMBL1806472, “Nobiletin metabolites: synthesis and inhibitory activity against matrix metalloproteinase-9 production” (Bioorg Med Chem Lett, 2011).

How the values were obtained:
[1] = Inhibition of PMA-induced proMMP9 production in human SRA 01/04 cells after 24 hrs by SDS-PAGE analysis; type: functional, cell-based
[2] = Inhibition of TNF-alpha-induced proMMP9 production in human SRA 01/04 cells after 24 hrs by SDS-PAGE analysis; type: functional, cell-based

Row | IC50 [1] [µM] | IC50 [2] [µM] | SMILES
1 | 20.9 | 17 | COc1ccc(-c2cc(=O)c3c(OC)c(OC)c(OC)c(OC)c3o2)cc1OC [NOBILETIN]
2 | 16.9 | 16.4 | COc1ccc(-c2cc(=O)c3c(OC)c(OC)c(OC)c(OC)c3o2)cc1O
3 | 12.3 | 10.8 | COc1c(OC)c(OC)c2c(=O)cc(-c3ccc(O)c(O)c3)oc2c1OC
4 | 3.7 | 5.5 | COc1cc(-c2cc(=O)c3c(OC)c(OC)c(OC)c(OC)c3o2)ccc1O
